Like-named read-outs stand apart in the source and are kept apart here.
Key:
[1] = cited from earlier work; for Main Route of Absorption: as listed in Table 2, no reference given
[2] = system: human intestinal organoid-derived monolayer (RepliGut)
[3] = ref PubChem; cited from earlier work
[4] = system: human intestinal organoid-derived monolayer (RepliGut); assay: RepliGut human jejunal organoid-derived monolayer permeability assay; conditions: organoid vs gMDCK
[5] = as above; conditions: human, pH 7.4
[6] = in vitro; conditions: dog, MDCK, pH 7.4, gMDCK Papp
[7] = in vitro; conditions: human, pH 7.4
[8] = gMDCK (P-gp knockout MDCK) monolayer permeability assay; conditions: dog, MDCK, pH 7.4, gMDCK Papp, reference compounds; apical to basolateral; n=3 biological replicates
[9] = system: gMDCK monolayers; conditions: MDCK

Row | Efflux Substrate [2] | apical to basolateral apparent permeability in intestinal organoids compared with gMDCK monolayers [4] | basolateral to apical permeability in intestinal organoids compared with gMDCK cells [4] | Papp at 3 h [5] [×10⁻⁶ cm/s] | basolateral to apical permeability in intestinal organoids compared with gMDCK cells [2] | Compound | Main Route of Absorption [1] | LogP [3] | Human Fa (fraction absorbed) [1] | other results
1 | Yes | – | – | – | – | CC(C)CN(C[C@@H](O)[C@H](Cc1ccccc1)NC(=O)O[C@H]1CCOC1)S(=O)(=O)c1ccc(N)cc1 [Amprenavir] | Transcellular | 2.2 | – | –
2 | – | significantly lower | significantly higher | 0.85 | – | CC(CCc1ccccc1)NCC(O)c1ccc(O)c(C(N)=O)c1 (stereo not drawn) [Labetalol] | Both | 1.8 | 95% [9] | –
3 | No | – | – | – | similar | COCCc1ccc(OCC(O)CNC(C)C)cc1 (stereo not drawn) [Metoprolol] | – | – | – | Papp at 3 h [6]: 13 ×10⁻⁶ cm/s; Papp at 3 h [7]: 10.1 ×10⁻⁶ cm/s
4 | Yes | higher | significantly higher | 0.17 | – | CC(C)(C)NCC(O)COc1cccc2c1CC(O)C(O)C2 (stereo not drawn) [Nadolol] | Paracellular | – | 57% [9] | Papp at 3 h [8]: 0.09 ×10⁻⁶ cm/s; efflux ratio at 3 h [7]: > 4
5 | – | – | – | – | similar | Lucifer yellow | – | – | – | effect of shaking gMDCK cells during the permeability assay on permeability [9]: did not significantly change; apical to basolateral apparent permeability in intestinal organoids compared with gMDCK monolayers [2]: higher

— publication PMC12473906, “Comparing the Altis RepliGut Organoid System to MDCK Monolayers in Predicting the Oral Absorption of Lenalidomide” (Pharmaceutics, 2025)
